Several values for one entry are separate records, joined by “and”; a condition that tells them apart may be missing. Identical values can stand only once.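 Method: 48-hour compound exposure of cells in 96-well plates, five concentrations, linear interpolation of endpoints. GI50 = concentration required for 50% inhibition of growth. At the TGI there is no net growth.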
How the values were obtained:
Experiment in all cases: NCI-60 cell line screen, 48 h
[1] = test system: NCI-H23 lung
[2] = test system: IGROV1 ovarian
[3] = test system: UO-31 renal
[4] = test system: OVCAR-4 ovarian
[5] = test system: HL-60(TB) leukemia
[6] = test system: MALME-3M melanoma
[7] = test system: COLO 205 colon
[8] = test system: SN12C renal
[9] = test system: OVCAR-3 ovarian

| Structure (SMILES) | TGI [1] | TGI [2] | TGI [3] | TGI [4] | TGI [5] [µM] | TGI [6] | TGI [7] | TGI [8] [µM] | TGI [9] | GI50 [1] [µM] | GI50 [2] [µM] | GI50 [3] [µM] | GI50 [4] [µM] | GI50 [5] [µM] | GI50 [6] [µM] | GI50 [7] [µM] | GI50 [8] [µM] | GI50 [9] [µM] |
| --- | --- | --- | --- | --- | --- | --- | --- | --- | --- | --- | --- | --- | --- | --- | --- | --- | --- | --- |
| Cc1ccc(/C=C/C(=O)c2ccc(Cl)c(Cl)c2)cc1 | > 100 µM | > 100 µM | > 100 µM | > 100 µM | > 100 | > 100 µM | > 100 µM | > 100 | > 100 µM | – | – | – | – | – | – | – | – | – |
| Cc1cccc(-c2nnc3s/c(=C\c4ccc(N(C)C)cc4)c(=O)n23)c1 | > 100 µM | > 100 µM | > 100 µM | > 100 µM | > 100 | > 100 µM | > 100 µM | > 100 | > 100 µM | – | – | – | – | – | – | – | – | – |
| CC(C)(C)C(=O)N1C(C(=O)O)Cc2ccccc2[C@@H]1Cc1ccccc1 (some centres undefined) | > 100 µM | > 100 µM | – | > 100 µM | > 100 | > 100 µM | > 100 µM | > 100 | > 100 µM | – | – | – | – | – | – | – | – | – |
| CCCCCCCCCCCCSC(=S)c1c(C)[nH]n(-c2ccccc2)c1=O | 35.8 µM | > 50 µM | 38.9 µM | > 50 µM | 24.4 | 39.8 µM | > 50 µM | > 50 | 46.1 µM | – | – | – | – | – | – | – | – | – |
| Nc1nc(=O)n(C2CCC(CO)O2)cc1F (centres undefined) | > 100 µM | – | > 100 µM | > 100 µM | > 100 | > 100 µM | > 100 µM | > 100 | > 100 µM | – | – | – | – | – | – | – | – | – |
| O=C(C[n+]1ccccc1)N/N=C(/CCC(=O)N(Cc1ccccc1)Cc1ccccc1)CC(=O)c1ccccc1 | > 100 µM | > 100 µM | > 100 µM | > 100 µM | > 100 | > 100 µM | > 100 µM | > 100 | > 100 µM | – | – | – | – | – | – | – | – | – |
| CSC(=O)C[C@@]12O[C@@H]([C@@H](C)C3CCC4[C@@H]5C(O)CC6=CC(=O)C=C[C@]6(C)C5CC[C@@]43C)C[C@](C)(O1)C(C)(C)O2 (some centres undefined) | – | 46.2 µM | 24.8 µM | 28.3 µM | 38.2 | 43.5 µM | – | 31.5 | 30.2 µM | – | – | – | – | – | – | – | – | – |
| COc1ccc(C(=O)C2CCC(C(=O)O)C2)cc1 (centres undefined) | > 100 µM | > 100 µM | > 100 µM | > 100 µM | > 100 | > 100 µM | > 100 µM | > 100 | > 100 µM | – | – | – | – | – | – | – | – | – |
| CCOC(=O)C12CCCC1(O)N(NC(=O)OC)C(C)=C2C(=O)OC (centres undefined) | > 100 µM | > 100 µM | > 100 µM | > 100 µM | > 100 | > 100 µM | > 100 µM | > 100 | > 10 µM | – | – | – | – | – | – | – | – | – |
| [N-]=[N+]=NCN1C(=O)C2C3C=CC(C2C1=O)C1C2C(=O)N(CN=[N+]=[N-])C(=O)C2C31 (centres undefined) | > 100 µM | > 100 µM | > 100 µM | – | – | – | > 100 µM | > 100 | > 100 µM | – | – | – | – | – | – | – | – | – |
| COC(=O)CCC(=O)Nc1ccc(Cl)cc1C | > 100 µM | > 100 µM | > 100 µM | > 100 µM | 13.6 | > 100 µM | > 100 µM | > 100 | > 100 µM | – | – | – | – | – | – | – | – | – |
| CN(C)c1ccc(/C=c2\sc3nnc(-c4ccco4)n3c2=O)cc1 | > 100 µM | > 100 µM | > 100 µM | > 100 µM | > 100 | > 100 µM | > 100 µM | > 100 | > 100 µM | – | – | – | – | – | – | – | – | – |
| COc1ccc(/C=C/c2cc(OC)c(OC(C)=O)c(OC)c2)cc1 | 61.4 µM | > 100 µM | 49.3 µM | > 100 µM | – | 88.1 µM | > 100 µM | 75.2 | > 100 µM | – | – | – | – | – | – | – | – | – |
| c1ccc(SC(Sc2ccccc2)=C2CCC2)cc1 | > 100 µM | – | > 100 µM | > 100 µM | > 100 | – | > 100 µM | > 100 | > 100 µM | – | – | – | – | – | – | – | – | – |
| O=C1c2ccccc2-c2c3c(cc4ccnc1c24)OCO3 | 25.9 µM and 17.4 µM | > 100 µM and 34.3 µM | 23.9 µM and 14.8 µM | 69.7 µM and > 100 µM | 15.6 | 11 µM and 15.6 µM | 82.5 µM and 16 µM | > 100 | 60.4 µM and 48.9 µM | – | – | – | – | – | – | – | – | – |
| CC(Oc1ccc2c(-c3ccc(Cl)cc3)cc(=O)oc2c1)C(=O)O (centres undefined) | > 100 µM | > 100 µM | > 100 µM | > 100 µM | > 100 | > 100 µM | > 100 µM | > 100 | > 100 µM | – | – | – | – | – | – | – | – | – |
| CSC(=NC(=O)c1ccccc1Cl)SCCSC(=NC(=O)c1ccccc1Cl)SC | > 100 µM | > 100 µM | > 100 µM | > 100 µM | > 100 | > 100 µM | > 100 µM | > 100 | > 100 µM | – | – | – | – | – | – | – | – | – |
| CCN(CC)CCN(CC)CC.CCN(CC)CCN(CC)CC.[Cu+2].[Cu+2].[O-][Cl+3]([O-])([O-])[O-].[OH3+].[OH3+] | 77.8 µM | 87.9 µM | > 100 µM | 51.2 µM | > 100 | > 100 µM | > 100 µM | > 100 | 55.8 µM | 31.1 | 29.4 | > 100 | 27.7 | 30.8 | > 100 | > 100 | 90.7 | 23.9 |
| Cc1ccc(NCC2(/N=C/c3ccccc3)OC(CO)C(O)C2O)cc1 (centres undefined) | > 100 µM | > 100 µM | > 100 µM | > 100 µM | 64.7 | > 100 µM | > 100 µM | – | > 100 µM | – | – | – | – | – | – | – | – | – |
